What was measured:
[1] = system: purified SDH of Ketogulonigenium sp. ADM 291-19; experiment: Substrate specificity of purified SDH, PMS-DCIP method; assay type: biochemical; settings: 1-Propanol = 100
Protocol: The dehydrogenase enzyme activity was assayed spectrophotometrically using 2,6-dichlorophenol indophenol (DCIP) as an artificial electron acceptor and phenazine methosulphate (PMS) as an electron mediator. […] The rate of decrease in absorbance at 522 nm was determined. One unit of enzyme activity was defined as the amount of enzyme catalyzing reduction of 1 μmol of DCIP per minute.
(§1) First, the periplasmic proteins from the cells of K. robustum ADM X6L and Ketogulonigenium sp. ADM 291-19 obtained in Step 1 of Example 1 were prepared by osmotic shock fractionation as described in Step 3 of Example 1. About 50 ml of osmotic shock fluid containing periplasmic proteins was loaded onto a DEAE-TSK 650 (S) (Merck) column (2.5×15 cm) previously equilibrated with 10 mM Tris·HCl buffer (pH 8.0). The column was first washed with 80 ml of 10 mM Tris·HCl buffer (pH 8.0) containing 0.1 M NaCl, followed by a gradient elution with 600 ml of the same buffer containing 0.1-0.5 M NaCl. Fractions containing 5 ml of eluant were collected and assayed for the SDH enzyme activities with D-sorbitol, L-sorbose and glyoxal as substrate. […] At about 0.15 M NaCl, eluted red fractions that probably contained cytochrome c.
(§2) Active fractions eluted from DEAE column were pooled and further purified by gel filtration column chromatography. The active fractions were concentrated by about 20 fold with ultrafiltration in Centricon 30 (Amicon). The concentrate was loaded onto Superose 12 (Pharmacia) and eluted isocratically with 50 mM sodium phosphate buffer (pH 7.0) containing 0.15 M NaCl.
(§3) The purified enzymes were active toward D-sorbitol, L-sorbose and glyoxal.

[2] = system: purified SDH of K. robustum ADM X6L; experiment: as above; assay type: biochemical, Ketogulonigenium robustum ADM X6L; settings: 1-Propanol = 100
Protocol: (§4) The dehydrogenase enzyme activity was assayed spectrophotometrically using 2,6-dichlorophenol indophenol (DCIP) as an artificial electron acceptor and phenazine methosulphate (PMS) as an electron mediator. The reaction mixture contained 50 mM Tris·HCl buffer (pH 8.0), 10 mM MgCl2, 5 mM CaCl2, 5 mM KCN, 0.1 mM PMS, 0.12 mM DCIP, a substrate as D-sorbitol (250 mM), L-sorbose (250 mM) or glyoxal (50 mM) and enzyme solution in a total volumn of 1.0 ml. The rate of decrease in absorbance at 522 nm was determined. One unit of enzyme activity was defined as the amount of enzyme catalyzing reduction of 1 μmol of DCIP per minute.
as §1, §2, §3

[3] = system: dehydrogenase enzyme activity (SDH) of Ketogulonigenium sp. ADM 291-19; experiment: Enzyme activity in cellular fractions, Ferric-Dupanol method (localization); assay type: biochemical
Protocol: (§5) Cells were harvested by centrifugation at 12,000 g for 10 min, washed once with 10 mM Tris·HCl buffer (pH 8.0) and disrupted by sonication in a Branson Sonifier 450 for 15 min at 50% duty cycle in ice. The homogenate thus prepared was centrifuged at 12,000 g for 5 min to remove the cell debris. The resulting supernatant was centrifuged at 100,000 g for 90 min to get the supernatant as soluble fraction and the precipitate as crude membrane fraction. The crude membrane fraction was solubilized with 1.5% n-octyl glucoside by stirring for 2 hours at 4° C. The resultant suspension was centrifuged at 12,000 g for 10 min to give a supernatant, designated as solubilized membrane fraction.
(§6) Enzyme activity was determined also by the Ferric-Dupanol method (Wood, W. A. et al., Meth. Enzymol., 5, 287 (1962)). The enzyme was preincubated for 5 min at 25° C. The reaction was started by addition of 10 mM (final conc.) potassium ferricyanide and 250 mM (final conc.) D-sorbitol, L-sorbose, or glyoxal. After an appropriate time, the reaction was stopped by adding the ferric sulfate-Dupanol solution (Fe2(SO4)3.nH2O 5 g/l, Dupanol (sodium lauryl sulfate) 3 g/l and 85% phosphoric acid 95 ml/l) and the absorbance of the Prussian color developed was determined at 660 nm in a spectrophotometer.
(§7) Enzyme activities towards D-sorbitol, L-sorbose and glyoxal in different cellular fractions were determined for enzyme localization in K. robustum ADM X6L and Ketogulonigenium sp. ADM 291-19. In both cases, most of the enzyme activity detected in crude cell extract was found in the soluble fraction and the activity in solubilized membrane fraction was negligible when assayed with Ferric-Dupanol method.

SDH = SDH activities in osmotic shock fractions, PMS-DCIP method; assay type: biochemical
Protocol: For more detailed localization study, periplasmic fraction was enriched by the method of osmotic shock (Neu, H. C. and Heppel, L. A., J. Biol. Chem., 240:3685 (1965)). Wet cells were resuspended at about 0.1 g/ml in 20% sucrose-0.03 M Tris·HCl buffer (pH 8.0) at room temperature. Di-sodium EDTA was added to 1 mM and the flask was shaken at 180 rpm at room temperature for 10 min. After centrifugation at 16,000 g for 20 min at 4° C., the supernatant was removed and the pellet was rapidly mixed with cold distilled water of the same volume as the original cell suspension and shaken in ice bucket in a shaker for 10 min. The mixture was centrifuged again to obtain the supernatant called “osmotic shock fluid”. The pellet was sonicated in the same buffer, centrifuged and the supernatant was obtained as “pellet sonicate”.
as §4
For further localization of the enzymes to periplasm or cytoplasm, periplasm was enriched by osmotic shock method as described in Step 3 of Example 1. In this method, the Tris-Sucrose wash and the osmotic shock fluid represent the periplasmic fraction and the pellet sonicate represents the cytoplasm and the cytoplasmic membrane. […] The remaining activity in pellet sonicate could be due to the incomplete release of periplasm by osmotic shock. Typical enzyme activity assay for SDH and β-galactosidase for fractions obtained by osmotic shock fractionation is shown in Table 3.

purified SDH enzymes = experiment: Activity of the purified SDH enzymes toward substrates; assay type: biochemical, K. robustum ADM X6L and Ketogulonigenium sp. ADM 291-19; settings: purified SDH enzymes of both strains
Protocol: as §1, §2, §3

[4] = system: dehydrogenase enzyme activity (SDH) of K. robustum ADM X6L; experiment: Enzyme activity in cellular fractions, Ferric-Dupanol method (localization); assay type: biochemical, Ketogulonigenium robustum ADM X6L
Protocol: as §5, §6, §7

[5] = system: K. robustum ADM X6L transformants; experiment: Bioconversion of D-sorbitol by transformants, HPLC of culture supernatant; assay type: cell-based, Ketogulonigenium robustum ADM X6L; settings: for improvement of L-sorbose production from D-sorbitol upon overexpression: flask scale experiment, versus pXH2 control; for L-sorbose production from D-sorbitol upon overexpression (in words): flask scale experiments
Protocol: For expression of the three SDH genes in K. robustum strains, the genes with their own promoters were subcloned into the vector, pXH2/K5. These plasmids were transformed into the strains, K. robustum ADM X6L and 86-96 (NRRL B-21630), by electroporation. In this case, gene dosage effect may be expected due to the apparent high copy number of the plasmid pXH2/K5. The transformants were analyzed by HPLC for improved conversion activity upon overexpression of each SDH gene using D-sorbitol and L-sorbose as substrate.
The effect of overexpression of the three SDH genes in bioconversion activity was analyzed by HPLC analysis of the product profile of the culture supernatant of transformants in a medium containing D-sorbitol or L-sorbose as substrate. The transformants were cultivated overnight in RM medium containing 20 μg/ml of Kanamycin. This overnight culture was used to inoculate the 25 ml RM medium (supplemented with 20 μg/ml of Kanamycin) containing 20 g/l of D-sorbitol or 20 g/l of L-sorbose as substrate instead of mannitol. The culture supernatant samples were taken in a 12-hour interval and were analyzed by HPLC (Gilson HPLC with RI detector (ERC-7515A, ERC Inc.)) equipped with Asted XL automatic sample injector. Samples were loaded on two 2 mm×300 mm×7.8 mm Aminex HPX-87H columns (BioRad) arranged in series to provide a total column length of 600 mm. The column was run at 50° C. at a flow rate of 0.5 ml/min. The peaks were identified and the concentration was determined by comparison with those of the standards using glycerol as internal standard.
K. robustum ADM X6L transformants harboring the pXSDH1, pXSDH2 or pXSDH3 were cultivated with D-sorbitol or L-sorbose as substrate. HPLC analysis of the products from D-sorbitol (Table 10) or L-sorbose (Table 11) is shown below. A transformant harboring pXH2 served as control.

## O=C[C@H](O)[C@@H](O)[C@H](O)[C@H](O)CO [D-Glucose]
[1]; substrate 250 mM
  % relative activity, ADM291-19: 20.0%
[2]; substrate 250 mM
  % relative activity, ADM X6L: 27.6%

## OC[C@@H](O)[C@@H](O)[C@H](O)[C@@H](O)CO [D-sorbitol]
[1]; substrate 250 mM
  % relative activity, ADM291-19: 12.4%
[3]; Cell Free Extract
  enzyme activity, Cell Free Extract: 0.66 ΔOD/min/2 μl enzyme
[3]; Membrane Fraction
  enzyme activity, Membrane Fraction: 0.00 ΔOD/min/2 μl enzyme
[3]; Soluble Fraction
  enzyme activity, Soluble Fraction: 0.65 ΔOD/min/2 μl enzyme
SDH; Osmotic Shock Fluid (periplasmic fraction)
  SDH activity, Osmotic Shock Fluid: 0.45 ΔOD/min/50 μl enzyme
SDH; Pellet Sonicate (cytoplasm and cytoplasmic membrane)
  SDH activity, Pellet Sonicate: 0.68 ΔOD/min/50 μl enzyme
SDH; Tris-Sucrose Wash (periplasmic fraction)
  SDH activity, Tris-Sucrose Wash: 0.31 ΔOD/min/50 μl enzyme
Purified SDH enzymes
  activity of the purified enzymes toward the substrate (in words): active
[4]; Cell Free Extract
  enzyme activity, Cell Free Extract: 0.92 ΔOD/min/4 μl enzyme
[4]; Membrane Fraction
  enzyme activity, Membrane Fraction: 0.01 ΔOD/min/4 μl enzyme
[4]; Soluble Fraction
  enzyme activity, Soluble Fraction: 0.90 ΔOD/min/4 μl enzyme
[2]; substrate 250 mM
  % relative activity, ADM X6L: 12.6%

## OC[C@@H](O)[C@@H](O)[C@H](O)[C@H](O)CO [D-Mannitol]
[1]; substrate 100 mM
  % relative activity, ADM291-19: 0%
[2]; substrate 100 mM
  % relative activity, ADM X6L: 26.6%

## OCC(O)CO [Glycerol]
[1]; substrate 250 mM
  % relative activity, ADM291-19: 32.5%
[2]; substrate 250 mM
  % relative activity, ADM X6L: 56.5%

## O=C(CO)[C@@H](O)[C@H](O)[C@H](O)CO [D-Fructose]
[1]; substrate 250 mM
  % relative activity, ADM291-19: 11.7%
[2]; substrate 250 mM
  % relative activity, ADM X6L: 8.0%

## CCO [Ethanol]
[1]; substrate 50 mM
  % relative activity, ADM291-19: 38.0%
[2]; substrate 50 mM
  % relative activity, ADM X6L: 20.0%

## O=C(O)[C@H](O)[C@@H](O)[C@H](O)[C@H](O)CO [D-Gluconate]
[1]; substrate 250 mM
  % relative activity, ADM291-19: 20.0%
[2]; substrate 250 mM
  % relative activity, ADM X6L: 30.6%

## CCCO [1-Propanol]
[1]; substrate 50 mM
  % relative activity, ADM291-19: 100%
[2]; substrate 50 mM
  % relative activity, ADM X6L: 100%

B1: SDH3: sorbitol dehydrogenase of K. robustum ADM 86-96, 580 amino acids (SEQ ID NO:8) (protein, listed as Ketogulonigenium sp.)
chain: MRPTTLLRTSAAVLLLGPIPAFAQVTPITDELLANPPAGEWINYGRNQENYRHSPLEQITTDNVGQLQLVWARGMEAGAVQVTPMIHDGVMYLANPGDVIQAIDAKTGDLMWEHRRQLPPVASLNGQGDRKRGVALYGTNLYFTSWDNHLVALDMATGQVVFDVERGSGDDGLTSNTSGPIVANGVIVAGSTCQYSPYGCFVSGHDPASGEELWRNYFIPQAGEEGDETWGNDFESRWMTGVWGQLTYDPVTNLVHYGSTGVGPASETQRGTPGGTLYGTNTRFAVRPDTGEIVWRHQTLPRDNWDQECTFEMMVANVDVQPAADMDGVQAINPNATTGERRVLTGIPCKTGTMWQFDAETGEFLWARDTNYQNLIASIDETGLVTVNEDSVLTQLDTDYDICPTFLGGRDWPSAALNPDSGIYFIPLNNACVDIMAVDQEFSALDVYNTSASYKLAPGFENMGRIDAIDISTGKTLWSAERLASNYSPVLSTAGGVLFNGGTDRYLRALSQETGETLWQTRLASVATGQAISYEIDGTQYVAIAGGGSTYGTNQNRALSEAIDSTTIGNAVYVFALPQQ
[5]
  improvement of L-sorbose production from D-sorbitol upon overexpression: ~3 times
  L-sorbose production from D-sorbitol upon overexpression (in words): significantly improved

B2: SDH1: sorbitol dehydrogenase of K. robustum ADM 86-96, 578 amino acids (SEQ ID NO:5) (protein, listed as Ketogulonigenium sp.)
chain: MKSNSLLLASVAAVAFFAVPAFADVTPVTDELLANPPAGEWISYGRNQENYRHSPLNQITPDNVGQLQLVWARGMNPGVVQVTPLIHDGVMYLANPGDIIQAIDAKTGDLIWEHRRQLPETSTLSSLGDRKRGIALYGTNVYFVSWDNHMVALDAASGQVVFDVDRGQGDERVSNSSGPIVANGVIVAGSTCQYSPFGCFVSGHDASTGEELWRNYFIPQAGEEGDETWGNDYEARWMTGVWGQITYDPTTNLVFYGSSAVGPASEVQRGTPGGTLYGTNTRFAVRPDTGEVVWRHQTLPRDNWDQECTFEMMVANVDVQPAADMDGVQAINPNAATGERRVLTGVPCKTGTMWQFDAETGEFLWARDTNYQNMISSIDETGLVTVNEDIILKDLDTDYRICPTFLGGRDWPSASLNPDSGIYFIPLNNACADLAAVDQEFTAMDVYNTSATYLLAPEKENMGRIDAIDISTGKTLWSVERLASNYSPVLSTAGGVLFNGGSDRYFRALSEETGETLWQTRLATVASGQAISYELDGVQYVAIAGGGNTYGTNLNSNIGATIDSTSIGNAVYVFALPQ
[5]
  improvement of L-sorbose production from D-sorbitol upon overexpression: ~2 times
  L-sorbose production from D-sorbitol upon overexpression (in words): significantly improved
